Data on six compounds can be found in patent publication US5976866A, “Screen for inhibitors of fungal IPC synthase” (Eli Lilly and Company, priority 1997, dated 1999).

Values after ≈ are worked out from the molar mass of the structure shown. Like-named read-outs stand apart in the source and are kept apart here.

What all share (type): cell-based, S. cerevisiae
For assay [1], the system named is YPH499 (transformed by YEp352). Description: Sensitivity to antifungal compounds (MIC), wild-type YPH499 (YEp352). The following applies: for MIC: Saccharomyces cerevisiae, read-out: Minimum Inhibitory Concentration. On the procedure: (§1) Strains A and B, and wild-type strain YPH499 (transformed with YEp352) were tested for sensitivity to a variety of known antifungal compounds. Cells were grown in YEPD or SC-URA (2% glucose) liquid culture and dispensed into the wells of a 96-well microtiter dish containing decreasing amounts of antifungal compounds, as in Example 2.
(§2) ^a Cells were grown in SCURA (2% glucose)
^b YPH499 is transformed by YEp352.

The next assay has as its system Strain A. The experiment in a line: Sensitivity to antifungal compounds (MIC), Strain A. The following applies: for MIC: Saccharomyces cerevisiae, read-out: Minimum Inhibitory Concentration. As to the method: as §1, §2
A further assay has as its system Strain B. Description: Sensitivity to antifungal compounds (MIC), Strain B. The settings on record: for MIC: Saccharomyces cerevisiae, read-out: Minimum Inhibitory Concentration. On the procedure: as §1, §2
A further assay concerns strains A and B. Description: Whole-cell comparison of strains A and B (and wild type) with antifungal compounds that do not target IPC synthase. The following applies: strains A and B compared. On the procedure:
as §1

On to `C[C@@H]1[C@H](O)[C@@H](C)/C=C/C=C/C=C/C=C/C=C/C=C/C=C/[C@H](O[C@@H]2O[C@H](C)[C@@H](O)[C@H](N)[C@@H]2O)C[C@@H]2O[C@](O)(C[C@@H](O)C[C@@H](O)[C@H](O)CC[C@@H](O)C[C@@H](O)CC(=O)O[C@H]1C)C[C@H](O)[C@H]2C(=O)O` [Amphotericin B], for which the MIC (in assay [1] (SC-URA (2% glucose)); in the assay with Strain A (SC-URA (2% glucose)); in the assay with Strain B (SC-URA (2% glucose))) was 2500 µg/mL (≈ 2710 µM) each time. Also, the “effect on strains A and B (in words)” value in the assay on strains A and B is “equally affected”.

Consider `C[C@@H]1C[C@@H]([C@H](O)CC2CC(=O)NC(=O)C2)C(=O)[C@@H](C)C1` [Cycloheximide], for which the values for the MIC (in assay [1]; in the assay with Strain A; with Strain B) were 300 µg/mL (≈ 1070 µM), 300 µg/mL (≈ 1070 µM) and 600 µg/mL (≈ 2130 µM), respectively. For the same compound, in the assay with strains A and B, the “effect on strains A and B (in words)” value is “equally affected”.

Turning to `OC(Cn1cncn1)(Cn1cncn1)c1ccc(F)cc1F` [Fluconazole], the MIC (in assay [1] (SC-URA (2% glucose)); in the assay with Strain A (SC-URA (2% glucose)); in the assay with Strain B (SC-URA (2% glucose))) was over 80000 µg/mL throughout. Also, in the assay on strains A and B, the “effect on strains A and B (in words)” value is given as “equally affected”.

With `CCC(C)n1ncn(-c2ccc(N3CCN(c4ccc(OCC5COC(Cn6cncn6)(c6ccc(Cl)cc6Cl)O5)cc4)CC3)cc2)c1=O` (centres unmarked) [Itraconazole], the MIC (in assay [1] (SC-URA (2% glucose)); with Strain A (SC-URA (2% glucose)); with Strain B (SC-URA (2% glucose))) was 1200 µg/mL (≈ 1700 µM) in each case.

With `C[C@@H]1[C@H](O)[C@@H](C)/C=C/C=C/CC/C=C/C=C/C=C/C=C/C(O[C@H]2O[C@H](C)[C@@H](O)[C@H](N)[C@@H]2O)CC2O[C@](O)(CC(O)C(O)CCC(O)CC(O)CC(O)CC(=O)O[C@H]1C)CC(O)C2C(=O)O` (some centres unmarked) [Nystatin], the “Minimum Inhibitory Concentration” value (in assay [1] (SC-URA (2% glucose)); in the assay on Strain A (SC-URA (2% glucose)); with Strain B (SC-URA (2% glucose))) was 20 mg/mL throughout. The “effect on strains A and B (in words)” value in the assay with strains A and B is reported as “equally affected”.

`CC(=O)N1CCN(c2ccc(OCC3COC(Cn4ccnc4)(c4ccc(Cl)cc4Cl)O3)cc2)CC1` (centres unmarked) [ketoconazole]: the “effect on strains A and B (in words)” value with strains A and B is “equally affected”.
